Laboratory results: ChEMBL document CHEMBL1141994, “Identification of an agonist ligand for estrogen-related receptors ERRbeta/gamma” (Bioorg Med Chem Lett, 2005)

Key:
Format in all cases: functional
[1] = molecular target: T1, Steroid hormone receptor ERR1 (Homo sapiens) (UniProt P11474); test: Fold activation of estrogen-related receptor alpha at 100 nM in cell-based reporter gene assay
T1 sequence (whole entry): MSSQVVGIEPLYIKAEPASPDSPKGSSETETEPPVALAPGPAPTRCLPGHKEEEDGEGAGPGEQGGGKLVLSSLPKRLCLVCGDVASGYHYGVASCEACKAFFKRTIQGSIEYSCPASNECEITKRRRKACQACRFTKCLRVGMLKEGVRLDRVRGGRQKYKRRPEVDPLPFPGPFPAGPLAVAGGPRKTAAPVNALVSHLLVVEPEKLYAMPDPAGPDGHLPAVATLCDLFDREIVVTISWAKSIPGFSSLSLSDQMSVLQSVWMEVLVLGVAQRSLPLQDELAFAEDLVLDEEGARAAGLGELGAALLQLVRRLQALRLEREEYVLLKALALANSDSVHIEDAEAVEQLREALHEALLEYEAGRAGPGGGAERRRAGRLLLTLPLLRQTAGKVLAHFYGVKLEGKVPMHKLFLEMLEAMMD

[2] = molecular target: T2, Estrogen-related receptor gamma (Homo sapiens) (UniProt P62508); test: Fold activation of estrogen-related receptor gamma at 100 nM in cell-based reporter gene assay
T2 sequence (whole entry): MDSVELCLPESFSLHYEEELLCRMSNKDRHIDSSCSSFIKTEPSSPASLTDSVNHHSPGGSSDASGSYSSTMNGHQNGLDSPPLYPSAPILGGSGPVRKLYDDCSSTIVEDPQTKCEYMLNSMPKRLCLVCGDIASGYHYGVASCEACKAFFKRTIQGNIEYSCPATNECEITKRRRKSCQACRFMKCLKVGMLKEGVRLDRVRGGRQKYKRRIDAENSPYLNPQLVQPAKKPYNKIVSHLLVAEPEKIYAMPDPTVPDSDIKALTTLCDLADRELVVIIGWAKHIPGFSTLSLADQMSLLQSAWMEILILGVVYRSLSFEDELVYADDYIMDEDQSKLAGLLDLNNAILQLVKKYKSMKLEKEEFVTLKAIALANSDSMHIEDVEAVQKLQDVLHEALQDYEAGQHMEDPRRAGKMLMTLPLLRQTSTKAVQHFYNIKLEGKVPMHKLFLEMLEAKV

[3] = molecular target: T3, Steroid hormone receptor ERR2 (Homo sapiens) (UniProt O95718); test: Fold activation of estrogen-related receptor beta at 100 nM in cell-based reporter gene assay
T3 sequence (whole entry): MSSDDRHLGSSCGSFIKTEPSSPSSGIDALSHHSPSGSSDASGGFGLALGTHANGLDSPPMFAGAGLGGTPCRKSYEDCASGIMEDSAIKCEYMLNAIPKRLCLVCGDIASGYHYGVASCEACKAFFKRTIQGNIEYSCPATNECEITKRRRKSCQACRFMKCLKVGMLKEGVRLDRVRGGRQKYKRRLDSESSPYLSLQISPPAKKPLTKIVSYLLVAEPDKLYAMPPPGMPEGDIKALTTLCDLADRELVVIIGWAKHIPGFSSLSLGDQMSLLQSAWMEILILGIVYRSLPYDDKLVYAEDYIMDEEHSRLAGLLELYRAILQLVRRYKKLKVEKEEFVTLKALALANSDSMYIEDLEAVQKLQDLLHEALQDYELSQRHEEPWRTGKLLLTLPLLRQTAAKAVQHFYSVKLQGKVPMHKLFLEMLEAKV

Activity [1]: 1.1 | Activity [2]: 0.8 | Activity [3]: 1
SMILES: C[C@]12CC[C@@H]3c4ccc(O)cc4CC[C@H]3[C@@H]1CC[C@@H]2O
